In assay [1] the test system is blood cells (monocytes, granulocytes, lymphocytes). Briefly: Test on binding-inhibitory effect of lentinan, mouse whole blood. Details: species or system ICR mice. The settings on record: 50 μg/mL un-labeled lentinan added before 5-40 μg/mL fluorescein-labeled lentinan, one hour. The method, then:
Upon the determination of the binding ability and prior to the dispensation of the whole blood into tubes, a 2 mg/mL lentinan solution diluted 10 times with PBS(−) was introduced into each tube in an amount of 25 μL/tube while ice-cooling the tubes, then the whole blood was dispensed into the tubes in an amount of 65 μL/tube and thereafter, a solution of fluorescein-labeled lentinan was added to each tube in an amount of 10 μL/tube (the final concentration of the lentinan solution for inhibition was set at 50 μg/mL). Then the subsequent operations were carried out according to the same procedures used above in the method for determining the binding ability (the previous section). (The results thus obtained are shown in FIG. 1 (indicated by FL+L50)).

For another assay, the system named is monocytes. Briefly: Test on binding-inhibitory effect of lentinan, human blood. The settings on record: 100 μg/mL lentinan added before 10 μg/mL fluorescein-labeled lentinan, Cases 3 and 4. The procedure: To the human blood sample, there was added the solution of lentinan (reference reagent 2) in a concentration of […], the resulting mixture was cultured at 37° C. for 15 minutes, fluorescein-labeled lentinan was then added thereto in a concentration of 10 μg/mL and the resulting mixture was further cultivated at 37° C. for additional 30 minutes. Thereafter, a PE-labeled antibody (available from Caltag Company) against human CD14 was added thereto, the resulting mixture was cultured at 37° C. for 30 minutes, 2 mL/tube of FACS Lysing Solution (a hemolysis/fixation liquid available from BD Company; diluted 10 times with distilled water) and then the resulting mixture was allowed to stand at room temperature for 10 minutes for the hemolysis of the blood sample. The subsequent operations and analysis were carried out by repeating the same procedures used above in the binding ability-determining method (in the foregoing paragraph) (the results thus obtained are shown in FIG. 7 (indicated by LNT+FL)). The similar analysis was carried out using fluorescein-labeled dextran as a control (reference reagent 1) for the fluorescein-labeled lentinan.

The subject of another assay is S180 mouse sarcoma cells. The settings on record: S180 subcutaneously transplanted, cited from earlier work.

Read-outs that look alike come from different tables or passages of the source.

Consider lentinan, for which the “effect on the binding ability of cells to fluorescein-labeled lentinan” value in assay [1] is given as “inhibited”. The “effect on binding of fluorescein-labeled lentinan with cells” value with monocytes is recorded as “inhibited”. Also, the anti-tumor effect result with S180 mouse sarcoma cells (C3H mice) is “weak anti-tumor effects”; in the assay on S180 mouse sarcoma cells (C57BL/6 mice), “medium anti-tumor effects”; with S180 mouse sarcoma cells (ICR and BALB/c mice), “higher anti-tumor effects”.

These data come from patent publication US7553824B2, “Kit for determining polysaccharide-binding activity of mononuclear cells present in peripheral blood” (Ajinomoto Co., Inc., priority 2004, dated 2009).
